Reference: US20110281726A1, “GLEDITSIA AMORPHOIDES SEEDLESS POD EXTRACT AND ITS USE AS AN AGRICULTURAL ADJUVANT” (IDEASUPPLY.COM ARGENTINA S.A., priority 2005, published 2011)

Key:
Format in all cases: in vivo
[1] = system: leafmining moth (Phyllocnistis Citrella Stainton); experiment: Control of leafmining moth: injection into tunnels and application on foliar surface
Excerpt: Efficacy of “avemectin” and the CU co-adjuvant of the invention to control leafmining moth (Phyllocnistis Citrella Stainton.)
Two assays were designed in order to assess the effect of two concentrations of the Coronillo Ultra surfactant and combinations of both products to control leafmining moth in citrus (Phyllocnistis Citrella Stainton.)
One of the assays was geared to testing the action of the direct contact of the products, both pure and in mixtures, with the larvae of the second and third stages by injecting the solution into the tunnels. The second assay aimed at assessing the effect of its application on the foliar surface affected with tunnels. In both assays, methylene blue dye was used as tracer to assess the flow of the solution inside the tunnel and the larvae.
In the treatments applied over the foliar surface, effects were noticed only when the active penetrated the epidermis and came into contact with the insect inside the tunnel.

[2] = system: leafmining moth (Phyllocnistis Citrella Stainton); experiment: Control of leafmining moth: field test in a five-year vegetable garden
Procedure: Finally, the above treatments were tested on the field, in a five-year vegetable garden.

[3] = system: alfalfa (Medicago Sativa L.); experiment: Influence of CU co-adjuvant on the activity of defoliant Paraquat in alfalfa; conditions: Paraquat 1 l/ha, CU 0.25% v/v, emulsion oil 1% v/v, five days after treatment, day-night temperatures 30/21° C.
Procedure: Another application with agrochemicals was conducted by assessing the influence of the “CU” co-adjuvant of the invention on the activity of defoliant “Paraquat” in alfalfa (Medicago Sativa L.)
For such purpose, the effect of the addition of the surfactant Coronillo Ultra (CU) at 0.25% v/v and emulsion oil at 1% v/v to defoliant Paraquat at a 1 l/ha concentration, in conditions of high and low temperatures during both the day and at night on alfalfa was assessed.

Row | Compound | effect of avemectin applied over the foliar surface ([1]; high concentrations) | effect of avemectin when injected ([1]; low doses) | control percentage after 14 days [2] | defoliation [3]
1 | avemectin | effective | same effect | low control percentage | –
2 | C[n+]1ccc(-c2cc[n+](C)cc2)cc1 [Paraquat] | – | – | – | 17%
